Results taken from patent US20110269811A1, “INHIBITORS OF SEMICARBAZIDE-SENSITIVE AMINE OXIDASE (SSAO) AND VAP-1 MEDIATED ADHESION USEFUL FOR TREATMENT AND PREVENTION OF DISEASES” (priority 2006, published 2011).

Experiments:
[1] = tested on: LPS-induced lung inflammation; experiment: LPS-induced pulmonary inflammation in rats; format: in vivo, Sprague Dawley rats; details: FIG. 14
Description: LPS-induced pulmonary inflammation in rats is a widely used model of airway inflammation ([…] et al. (2002) J. Pharmacol. Exp. Ther. 302:127). For the experiment described here, groups of Sprague-Dawley female rats (180-200 g) were orally dosed with either a compound of the invention (1 or 10 mg/kg), or with vehicle 1 h before the LPS challenge. Animals were placed in a plexiglass chamber and LPS at 100 μg/ml was nebulized for ten minutes. The nebulizer was turned off for ten minutes, then the chamber was evacuated for a further ten minutes. The animals remained in the chamber throughout this 30 minute cycle. Animals were then returned to their cages for the remainder of the experiment. Four hours after exposure to LPS animals were sacrificed and lungs excised. Lungs were washed with three cycles of 3 ml RPMI 1640 medium and the lavage fluid combined. Cells were pelleted by centrifugation and washed in the same medium. Total cell counts were performed using a hemacytometer. Differential cell counts were conducted on Cytospin-prepared slides stained with Diff-Quick stain. Standard morphological criteria were used to define mononuclear and neutrophilic cells. Using the above protocol, an experiment to assess the effects of compound I-1-Z was carried out. Groups of four female Sprague Dawley rats were orally administered PBS, compound I-1-Z at the indicated doses, or dexamethasone at 3 mg/kg. […]

[2] = biological target: T1, β2 (h) (Homo sapiens, UniProt P07550); experiment: Receptor binding screen, [^3H](−)CGP 12177; details: 10 uM Concentration of Compound I-1-Z; read-out: Mean Value, percent inhibition of control specific binding: β2 (h)
T1 construct: expressed in transfected cells; host or cells: Sf9 cells

[3] = tested on: BZD (central); experiment: Receptor binding screen, [^3H]flunitrazepam; set-up: species or system rat; details: 10 uM Concentration of Compound I-1-Z
[4] = biological target: T2, CGRP (h) (Homo sapiens, UniProt O60894+Q16602); experiment: Receptor binding screen, [^125I]hCGRPα; details: 10 uM Concentration of Compound I-1-Z; read-out: Mean Value, percent inhibition of control specific binding: CGRP (h)
T2 construct: expressed in transfected cells; host or cells: CHO cells

[5] = biological target: T3, CB1 (h) (Homo sapiens, UniProt P21554); experiment: Receptor binding screen, [^3H]CP 55940; details: 10 uM Concentration of Compound I-1-Z; read-out: Mean Value, percent inhibition of control specific binding: CB1 (h)
T3 construct: expressed in transfected cells; host or cells: CHO cells

[6] = biological target: T4, CCKA (h) (CCK1) (Homo sapiens, UniProt P32238); experiment: Receptor binding screen, [^125I]CCK-8; details: 10 uM Concentration of Compound I-1-Z; read-out: Mean Value, percent inhibition of control specific binding: CCKA (h) (CCK1)
T4 construct: expressed in transfected cells; host or cells: CHO cells

[7] = biological target: T5, D2S (h) (Homo sapiens, UniProt P14416); experiment: Receptor binding screen, [^3H]spiperone; details: 10 uM Concentration of Compound I-1-Z; read-out: Mean Value, percent inhibition of control specific binding: D2S (h)
T5 construct: expressed in transfected cells; host or cells: HEK-293 cells

[8] = biological target: T6, D3 (h) (Homo sapiens, UniProt P35462); experiment: Receptor binding screen, [^3H]spiperone; details: 10 uM Concentration of Compound I-1-Z; read-out: Mean Value, percent inhibition of control specific binding: D3 (h)
T6 construct: expressed in transfected cells; host or cells: CHO cells

[9] = biological target: T7, GAL1 (h) (Homo sapiens, UniProt P47211); experiment: Receptor binding screen, [^125I]galanin; details: 10 uM Concentration of Compound I-1-Z; read-out: Mean Value, percent inhibition of control specific binding: GAL1 (h)
T7 construct: expressed in transfected cells; host or cells: HEK-293 cells

[10] = tested on: PDGF; experiment: Receptor binding screen, [^125I]PDGF BB, Balb/c 3T3 cells; details: 10 uM Concentration of Compound I-1-Z
[11] = biological target: T8, CCR1 (h) (Homo sapiens, UniProt P32246); experiment: Receptor binding screen, [^125I]MIP-1α; details: 10 uM Concentration of Compound I-1-Z; read-out: Mean Value, percent inhibition of control specific binding: CCR1 (h)
T8 construct: expressed in transfected cells; host or cells: HEK-293 cells

[12] = biological target: T9, H1 (h) (Homo sapiens, UniProt P35367); experiment: Receptor binding screen, [^3H]pyrilamine; details: 10 uM Concentration of Compound I-1-Z; read-out: Mean Value, percent inhibition of control specific binding: H1 (h)
T9 construct: expressed in transfected cells; host or cells: HEK-293 cells

[13] = biological target: T10, κ (KOP) (Cavia porcellus, UniProt P41144); experiment: Receptor binding screen, [^3H]U 69593, guinea-pig cerebellum; details: 10 uM Concentration of Compound I-1-Z; read-out: Mean Value, percent inhibition of control specific binding: κ (KOP)
T10 construct: cerebellum; from tissue; host or cells: guinea-pig cerebellum
Description: (§1) For Table 4 below, the specific ligand binding to the receptors is defined as the difference between the total binding and the nonspecific binding determined in the presence of an excess of unlabelled ligand. The results are expressed as a percent inhibition of control specific binding obtained in the presence of Compound I-1-Z. The IC50 values (concentration causing a half-maximal inhibition of control specific binding) and Hill coefficients (nH) were determined by non-linear regression analysis of the competition curves using Hill equation curve fitting. The inhibition constants (Ki) were calculated from the Cheng Prusoff equation (Ki=IC50/(1+(L/KD)), where L=concentration of radioligand in the assay, and KD=affinity of the radioligand for the receptor). In each experiment, the respective reference compound was tested concurrently with Compound I-1-Z in order to assess the assay suitability.

[14] = biological target: T11, PACAP (PAC1) (h) (Homo sapiens, UniProt P41586); experiment: Receptor binding screen, [^125I]PACAP1-27; details: 10 uM Concentration of Compound I-1-Z; read-out: Mean Value, percent inhibition of control specific binding: PACAP (PAC1) (h)
T11 construct: expressed in transfected cells; host or cells: CHO cells

[15] = biological target: T12, 5-HT5A (h) (Homo sapiens, UniProt P47898); experiment: Receptor binding screen, [^3H]LSD; details: 10 uM Concentration of Compound I-1-Z; read-out: Mean Value, percent inhibition of control specific binding: 5-HT5A (h)
T12 construct: expressed in transfected cells; host or cells: CHO cells

[16] = tested on: Ca^2+ channel (L, verapamil site) (phenylalkylamines); experiment: Receptor binding screen, [^3H](−)D 888; set-up: species or system rat; details: 10 uM Concentration of Compound I-1-Z
[17] = tested on: SK^+Ca channel; experiment: Receptor binding screen, [^125I]apamin; set-up: species or system rat; details: 10 uM Concentration of Compound I-1-Z
Description: as §1

[18] = biological target: T13, 5-HT transporter (h) (Homo sapiens, UniProt P31645); experiment: Receptor binding screen, [^3H]imipramine; details: 10 uM Concentration of Compound I-1-Z; read-out: Mean Value, percent inhibition of control specific binding: 5-HT transporter (h)
T13 construct: expressed in transfected cells; host or cells: CHO cells
T13 sequence (P31645 whole entry): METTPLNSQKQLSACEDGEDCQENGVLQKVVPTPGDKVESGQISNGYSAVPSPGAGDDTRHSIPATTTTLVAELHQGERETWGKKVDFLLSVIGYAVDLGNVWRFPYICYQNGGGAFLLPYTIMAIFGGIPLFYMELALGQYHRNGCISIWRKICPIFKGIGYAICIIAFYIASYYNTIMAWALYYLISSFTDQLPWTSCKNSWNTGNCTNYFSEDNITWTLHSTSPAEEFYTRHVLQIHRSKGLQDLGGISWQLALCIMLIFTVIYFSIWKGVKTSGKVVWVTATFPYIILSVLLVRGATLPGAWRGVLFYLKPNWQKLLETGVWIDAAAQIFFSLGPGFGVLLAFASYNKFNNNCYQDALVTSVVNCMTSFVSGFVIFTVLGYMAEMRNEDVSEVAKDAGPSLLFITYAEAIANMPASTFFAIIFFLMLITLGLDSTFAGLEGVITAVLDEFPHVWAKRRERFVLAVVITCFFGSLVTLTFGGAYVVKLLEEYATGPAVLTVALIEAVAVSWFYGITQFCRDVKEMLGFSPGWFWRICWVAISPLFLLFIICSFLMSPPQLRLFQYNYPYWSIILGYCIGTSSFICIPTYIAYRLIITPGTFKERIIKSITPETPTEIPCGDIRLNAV

T1 sequence (P07550 whole entry): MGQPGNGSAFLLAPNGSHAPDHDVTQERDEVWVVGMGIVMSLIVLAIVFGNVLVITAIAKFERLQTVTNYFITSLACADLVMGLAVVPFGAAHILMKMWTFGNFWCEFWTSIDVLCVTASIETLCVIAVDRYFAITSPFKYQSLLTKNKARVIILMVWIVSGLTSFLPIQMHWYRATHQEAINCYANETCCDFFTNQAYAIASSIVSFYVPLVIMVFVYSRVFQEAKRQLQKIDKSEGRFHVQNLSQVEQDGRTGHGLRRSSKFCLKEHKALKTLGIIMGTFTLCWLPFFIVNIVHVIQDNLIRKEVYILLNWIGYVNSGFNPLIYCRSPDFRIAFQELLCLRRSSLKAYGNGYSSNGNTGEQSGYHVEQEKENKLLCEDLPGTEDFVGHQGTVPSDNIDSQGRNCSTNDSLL
T4 sequence (P32238 whole entry): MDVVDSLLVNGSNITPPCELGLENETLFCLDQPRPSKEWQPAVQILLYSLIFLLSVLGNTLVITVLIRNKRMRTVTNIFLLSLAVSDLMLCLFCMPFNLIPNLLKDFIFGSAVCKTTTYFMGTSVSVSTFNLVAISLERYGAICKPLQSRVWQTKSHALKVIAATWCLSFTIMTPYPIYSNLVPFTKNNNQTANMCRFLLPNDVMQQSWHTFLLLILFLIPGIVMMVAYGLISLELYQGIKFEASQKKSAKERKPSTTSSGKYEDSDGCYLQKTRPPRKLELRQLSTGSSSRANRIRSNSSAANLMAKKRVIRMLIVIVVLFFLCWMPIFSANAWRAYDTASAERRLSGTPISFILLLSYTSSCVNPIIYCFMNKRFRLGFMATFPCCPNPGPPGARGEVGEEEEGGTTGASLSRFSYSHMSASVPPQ
T7 sequence (P47211 whole entry): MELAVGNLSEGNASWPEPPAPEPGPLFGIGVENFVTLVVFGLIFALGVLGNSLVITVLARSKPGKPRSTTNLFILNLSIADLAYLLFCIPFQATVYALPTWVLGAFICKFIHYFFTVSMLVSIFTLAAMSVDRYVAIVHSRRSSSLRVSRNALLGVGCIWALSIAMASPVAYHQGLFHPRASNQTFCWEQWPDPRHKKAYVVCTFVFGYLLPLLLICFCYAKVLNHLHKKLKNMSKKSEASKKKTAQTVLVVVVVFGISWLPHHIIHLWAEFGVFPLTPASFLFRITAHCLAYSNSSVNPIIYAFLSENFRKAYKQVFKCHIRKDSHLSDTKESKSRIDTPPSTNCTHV
T5 sequence (P14416 1-414 isoform P14416-2): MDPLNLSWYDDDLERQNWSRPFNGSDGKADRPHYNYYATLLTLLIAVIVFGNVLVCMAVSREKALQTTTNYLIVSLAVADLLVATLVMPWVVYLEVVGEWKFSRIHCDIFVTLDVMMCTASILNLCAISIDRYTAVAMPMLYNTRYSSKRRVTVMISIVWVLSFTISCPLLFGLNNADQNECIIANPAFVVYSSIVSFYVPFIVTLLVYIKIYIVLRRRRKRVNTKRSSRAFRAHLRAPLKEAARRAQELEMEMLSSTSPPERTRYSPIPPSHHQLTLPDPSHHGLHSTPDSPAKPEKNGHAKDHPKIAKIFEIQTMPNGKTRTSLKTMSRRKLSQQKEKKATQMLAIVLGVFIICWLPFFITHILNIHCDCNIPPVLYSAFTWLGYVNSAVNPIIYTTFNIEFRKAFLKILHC
T9 sequence (P35367 whole entry): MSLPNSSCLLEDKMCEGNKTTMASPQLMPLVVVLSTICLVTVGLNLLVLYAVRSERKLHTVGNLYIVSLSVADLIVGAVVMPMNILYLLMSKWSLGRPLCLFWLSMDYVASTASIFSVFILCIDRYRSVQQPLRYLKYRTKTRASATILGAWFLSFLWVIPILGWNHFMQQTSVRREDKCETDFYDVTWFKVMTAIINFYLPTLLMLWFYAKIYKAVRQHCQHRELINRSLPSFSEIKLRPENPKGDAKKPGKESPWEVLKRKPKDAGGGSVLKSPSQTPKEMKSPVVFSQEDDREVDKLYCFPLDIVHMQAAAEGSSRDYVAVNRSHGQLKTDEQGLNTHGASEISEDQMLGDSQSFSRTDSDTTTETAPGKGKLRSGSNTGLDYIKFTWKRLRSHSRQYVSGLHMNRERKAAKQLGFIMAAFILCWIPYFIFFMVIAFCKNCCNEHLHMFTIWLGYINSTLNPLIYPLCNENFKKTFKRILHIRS
T3 sequence (P21554 whole entry): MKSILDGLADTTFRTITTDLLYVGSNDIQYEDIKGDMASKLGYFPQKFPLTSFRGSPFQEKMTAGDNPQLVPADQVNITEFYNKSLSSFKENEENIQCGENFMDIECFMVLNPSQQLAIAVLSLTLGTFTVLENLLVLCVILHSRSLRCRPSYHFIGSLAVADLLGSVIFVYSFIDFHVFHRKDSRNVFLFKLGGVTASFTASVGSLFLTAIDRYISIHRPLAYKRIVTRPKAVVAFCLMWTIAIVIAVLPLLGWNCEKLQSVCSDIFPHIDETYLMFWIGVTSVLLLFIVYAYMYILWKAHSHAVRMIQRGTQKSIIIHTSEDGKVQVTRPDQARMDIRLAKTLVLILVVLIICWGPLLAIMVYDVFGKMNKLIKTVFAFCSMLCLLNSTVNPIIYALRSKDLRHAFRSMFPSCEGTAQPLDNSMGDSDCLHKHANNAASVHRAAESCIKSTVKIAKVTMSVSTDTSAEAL
T2 sequence (Q16602 23-461): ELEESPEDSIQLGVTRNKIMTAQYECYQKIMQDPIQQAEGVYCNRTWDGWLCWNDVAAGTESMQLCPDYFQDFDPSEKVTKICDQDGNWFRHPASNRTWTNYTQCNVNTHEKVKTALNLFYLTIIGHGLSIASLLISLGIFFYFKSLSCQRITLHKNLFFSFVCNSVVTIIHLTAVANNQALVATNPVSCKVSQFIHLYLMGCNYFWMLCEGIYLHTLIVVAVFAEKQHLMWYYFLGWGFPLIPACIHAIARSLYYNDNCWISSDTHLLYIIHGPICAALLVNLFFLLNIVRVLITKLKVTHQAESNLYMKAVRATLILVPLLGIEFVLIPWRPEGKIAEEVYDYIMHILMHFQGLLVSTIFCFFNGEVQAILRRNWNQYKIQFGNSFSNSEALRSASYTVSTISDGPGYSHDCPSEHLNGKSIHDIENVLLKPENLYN
T2 sequence (O60894 27-148): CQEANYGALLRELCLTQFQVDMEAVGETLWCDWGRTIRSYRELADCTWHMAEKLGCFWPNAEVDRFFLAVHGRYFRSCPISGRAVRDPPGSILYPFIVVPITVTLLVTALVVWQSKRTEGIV
T11 sequence (P41586 21-468): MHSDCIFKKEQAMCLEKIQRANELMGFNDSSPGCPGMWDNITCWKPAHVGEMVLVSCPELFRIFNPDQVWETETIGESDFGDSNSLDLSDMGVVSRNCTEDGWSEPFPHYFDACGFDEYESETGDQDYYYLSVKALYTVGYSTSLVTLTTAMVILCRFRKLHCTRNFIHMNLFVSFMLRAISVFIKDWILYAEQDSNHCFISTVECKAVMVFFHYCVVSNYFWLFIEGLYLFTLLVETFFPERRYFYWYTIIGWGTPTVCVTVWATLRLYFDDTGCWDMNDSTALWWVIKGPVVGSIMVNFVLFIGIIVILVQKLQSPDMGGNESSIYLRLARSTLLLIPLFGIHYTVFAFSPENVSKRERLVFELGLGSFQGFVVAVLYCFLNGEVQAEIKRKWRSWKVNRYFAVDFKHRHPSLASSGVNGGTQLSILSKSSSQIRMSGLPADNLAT
T12 sequence (P47898 whole entry): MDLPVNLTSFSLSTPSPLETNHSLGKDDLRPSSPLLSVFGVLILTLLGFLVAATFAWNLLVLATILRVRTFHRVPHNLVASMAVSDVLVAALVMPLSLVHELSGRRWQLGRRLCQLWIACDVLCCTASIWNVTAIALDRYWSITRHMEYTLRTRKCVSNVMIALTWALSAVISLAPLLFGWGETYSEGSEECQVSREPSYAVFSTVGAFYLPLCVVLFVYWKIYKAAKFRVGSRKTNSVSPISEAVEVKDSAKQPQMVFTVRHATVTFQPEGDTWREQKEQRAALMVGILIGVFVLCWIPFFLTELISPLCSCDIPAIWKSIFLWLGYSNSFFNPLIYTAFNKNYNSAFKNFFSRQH
T10 sequence (P41144 whole entry): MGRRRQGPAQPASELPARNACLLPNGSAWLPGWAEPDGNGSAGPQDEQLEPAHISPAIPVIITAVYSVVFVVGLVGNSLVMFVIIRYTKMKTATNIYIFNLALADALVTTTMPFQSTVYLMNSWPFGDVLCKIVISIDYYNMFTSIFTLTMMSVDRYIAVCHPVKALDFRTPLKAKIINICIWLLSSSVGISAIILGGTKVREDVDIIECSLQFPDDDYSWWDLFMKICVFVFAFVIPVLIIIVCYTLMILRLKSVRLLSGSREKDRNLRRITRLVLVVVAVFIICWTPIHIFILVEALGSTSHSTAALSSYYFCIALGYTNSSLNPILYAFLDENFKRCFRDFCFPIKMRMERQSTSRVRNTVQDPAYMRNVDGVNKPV

COc1ccc(C/C(=C/F)CN)cc1.Cl [Compound I-1-Z, (Z)-3-Fluoro-2-(4-methoxybenzyl)-allylamine hydrochloride]
LPS-induced lung inflammation ([1]; 1 mg/kg orally before nebulized LPS): effective in reducing LPS-induced lung inflammation
LPS-induced lung inflammation ([1]; 10 mg/kg orally before nebulized LPS): effective in reducing LPS-induced lung inflammation
inhibition at 10 µM [2]: 6%
Mean Value, percent inhibition of control specific binding: BZD (central) [3]: 14%
inhibition at 10 µM [4]: -7%
inhibition at 10 µM [5]: 14%
inhibition at 10 µM [6]: -13%
inhibition at 10 µM [7]: -4%
inhibition at 10 µM [8]: -2%
inhibition at 10 µM [9]: 0%
Mean Value, percent inhibition of control specific binding: PDGF [10]: −14%
inhibition at 10 µM [11]: 3%
inhibition at 10 µM [12]: 3%
inhibition at 10 µM [13]: -18%
inhibition at 10 µM [14]: 5%
inhibition at 10 µM [15]: -3%
Mean Value, percent inhibition of control specific binding: Ca^2+ channel (L, verapamil site) (phenylalkylamines) [16]: 14%
Mean Value, percent inhibition of control specific binding: SK^+Ca channel [17]: 4%
inhibition at 10 µM [18]: 47%
